Results on 28 compounds are retold here after patent US20170002011A1, “BENZENE SULFONAMIDES AS CCR9 INHIBITORS” (NORGINE B.V., priority 2013, published 2017).

The assay has as its target T1, CCR9 (Homo sapiens, UniProt P51686).
T1 sequence (P51686 1-369): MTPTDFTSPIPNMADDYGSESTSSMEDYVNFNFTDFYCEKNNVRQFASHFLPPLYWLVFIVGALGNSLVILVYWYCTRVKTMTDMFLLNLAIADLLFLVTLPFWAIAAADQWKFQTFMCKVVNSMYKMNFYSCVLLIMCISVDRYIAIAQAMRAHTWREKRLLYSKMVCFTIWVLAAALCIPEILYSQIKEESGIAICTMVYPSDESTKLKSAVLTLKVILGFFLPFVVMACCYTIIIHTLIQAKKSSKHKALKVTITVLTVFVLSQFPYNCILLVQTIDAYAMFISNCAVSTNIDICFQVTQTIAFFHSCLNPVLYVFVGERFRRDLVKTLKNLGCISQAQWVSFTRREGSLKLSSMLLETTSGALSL
Nature of the assay: FLIPR calcium flux assay using MOLT4 cells (TECK stimulation). Format: cell-based. Also on record: endogenous in cells; host or cells: MOLT4 (human T-cell line). The note with it: MOLT4 cells (a human T-cell line); Ki determined from IC50 of TECK-induced intracellular calcium increase. As to the method: Biological Activity: FLIPR Assay Using MOLT4 Cells
A calcium flux assay was used to determine the ability of the compounds to interfere with the binding between CCR9 and its chemokine ligand (TECK) in MOLT4 cells (a human T-cell line). MOLT4 cells were seeded (100,000 cells/well) in coming cell culture plates (Cat #3603) in assay buffer (lx HBSS, 20 mM HEPES) containing 2.5 mM Probenecid. The plate was centrifuged at 1200 rpm for 3 minutes and incubated at 37° C./5% CO2 for 2 hours. A 0.3× Fluo-4 NW calcium dye was prepared in assay buffer containing 5 mM Probenecid and stored in the dark. Each well was loaded with 25 μL of 0.3× Fluo-4 NW calcium dye and incubated at 37 C/5% CO2 for 60 minutes and then at room temperature for 30 minutes. A half-log serially diluted concentration response curve was prepared at a 4× concentration for each (10 μM-0.1 nM final assay concentration) and 25 μL of the compound then transferred to the cells (100 μL final volume) for 60 minutes prior to stimulation (30 minutes at 37° C./5% CO2 and 30 minutes at room temperature). TECK was diluted to 5× its EC50 in assay buffer (containing 0.1% [w/v] bovine serum albumin [BSA]) and 25 μL dispensed through the FLIPR instrument to stimulate the cells (125 μL final volume). The increased in intracellular calcium levels was measured with the FLIPR instrument. The potency of the compound as CCR9 antagonist was calculated as an IC50 using GraphPad Prism software (variable slope four parameter). The Ki of the compound was determined from the IC50 values using the following equation.
Ki calculation: IC50/1+(Agonist (TECK) conc. used in assay/EC50 of agonist (TECK) generated on day of experiment)
(In general: A change in cytosolic calcium serves as a functional read-out for many receptors and channels.)
Usually Ki stands for the equilibrium dissociation constant of an inhibitor or competing ligand from its target. As to `Cc1cc2nccc(NS(=O)(=O)c3ccc(N4CCOCC4)cc3)n2n1` [Compound 22], the Ki was found to be 4 µM. The value for `Cc1cc2nccc(NS(=O)(=O)c3ccc(C(F)(F)F)cc3)n2n1` [Compound 23] was 1.7 µM; that for `Cc1cc2nccc(NS(=O)(=O)c3ccc(Br)cc3)n2n1` [Compound 28] was 6.19 µM; that for `Cc1cc2nccc(NS(=O)(=O)c3cccc(C(C)(C)C)c3)n2n1` [Compound 32] was 1.78 µM. The value for `Cc1cc2nccc(NS(=O)(=O)c3ccc(OC(F)F)cc3)n2n1` [Compound 33] was 1.21 µM; that for `O=S(=O)(Nc1ccnc2cc(C3CC3)nn12)c1cccc(C(F)(F)F)c1` [Compound 39] was 5.89 µM. On to `O=S(=O)(Nc1ccnc2cc(C3CC3)nn12)c1ccc(C(F)(F)F)cc1` [Compound 41], for which the Ki was 1.88 µM. Consider `O=S(=O)(Nc1ccnc2cc(C3CC3)nn12)c1ccc(OC(F)(F)F)cc1` [Compound 42], for which the inhibition constant (Ki) came out at 1.59 µM.

Regarding `CC(C)(C)c1cccc(S(=O)(=O)Nc2ccnc3cc(C4CC4)nn23)c1` [Compound 44], the inhibition constant Ki was determined as 1.42 µM.

Take `O=S(=O)(Nc1ccnc2cc(C3CC3)nn12)c1cccc(OC(F)(F)F)c1` [Compound 50]: the Ki was 3.75 µM. For `O=S(=O)(Nc1ccnc2cc(C3CC3)nn12)c1ccc(OC(F)F)cc1` [Compound 51] the value was 3.2 µM; for `CC(C)(C)c1ccc(S(=O)(=O)Nc2ccnc3cc(-c4cccnc4)nn23)cc1` [Compound 62, 4-(tert-butyl)-N-(2-(pyridin-3-yl)pyrazolo[1,5-a]pyrimidin-7-yl)benzenesulfonamide], 0.253 µM. The value for `CC(C)(C)c1ccc(S(=O)(=O)Nc2ccnc3cc(-c4ccc(C#N)cc4)nn23)cc1` [Compound 75, 4-(tert-butyl)-N-(2-(4-cyanophenyl)pyrazolo[1,5-a]pyrimidin-7-yl)benzenesulfonamide] was 1.55 µM; that for `CCc1cc2nccc(NS(=O)(=O)c3ccc(Cl)c(C(F)(F)F)c3)n2n1` [Compound 87] was 3.23 µM; that for `O=S(=O)(Nc1ccnc2cc(-c3ccc(Cl)cc3)nn12)c1ccc(-c2cnco2)cc1` [Compound 90] was 1.38 µM. For `CC(C)c1cc2c(Cl)ccc(NS(=O)(=O)c3ccc(C(F)(F)F)cc3)n2n1` [Compound 101] the value was 0.492 µM; for `CCc1cc2c(Cl)ccc(NS(=O)(=O)c3ccc(C(F)(F)F)cc3)n2n1` [Compound 106], 0.177 µM; for `O=S(=O)(Nc1ccc(Cl)c2cc(C3CC3)nn12)c1ccc(Cl)c(C(F)(F)F)c1` [Compound 108], 0.456 µM. With `O=S(=O)(Nc1ccc(Cl)c2cc(-c3cccnc3)nn12)c1ccc(OC(F)(F)F)cc1` [Compound 112], the Ki is 0.092 µM.

Take `O=S(=O)(Nc1ccc(Cl)c2cc(-c3cccnc3)nn12)c1ccc(F)cc1` [Compound 115]: the Ki was found to be 0.64 µM. The value for `O=S(=O)(Nc1ccc(Cl)c2cc(-c3ccc[n+]([O-])c3)nn12)c1ccc(OC(F)(F)F)cc1` [Compound 116] was 1.03 µM; that for `CC(C)(C#N)c1ccc(S(=O)(=O)Nc2ccc(Cl)c3cc(-c4cccnc4)nn23)cc1` [Compound 123] was 0.219 µM; that for `COc1cc(-c2cc3c(Cl)ccc(NS(=O)(=O)c4ccc(C(C)C)cc4)n3n2)c[n+]([O-])c1` [Compound 126] was 0.073 µM. As to `COc1cncc(-c2cc3c(Cl)ccc(NS(=O)(=O)c4ccc(C(C)(C)C)cc4)n3n2)c1` [Compound 127], the Ki worked out at 0.192 µM. Turning to `COc1cncc(-c2cc3c(Cl)ccc(NS(=O)(=O)c4ccc(C(F)(F)F)cc4)n3n2)c1` [Compound 128], the inhibition constant Ki was determined as 0.17 µM. `CC(C)(C)c1ccc(S(=O)(=O)Nc2ccc(Cl)c3cc(-c4cncc(F)c4)nn23)cc1` [Compound 132]: the Ki came to 0.171 µM. For `O=S(=O)(Nc1ccc(Cl)c2cc(-c3cncc(F)c3)nn12)c1ccc(C(F)(F)F)cc1` [Compound 133] the value was 0.182 µM; for `Cn1nccc1-c1cc2c(Cl)ccc(NS(=O)(=O)c3ccc(C(C)(C)C)cc3)n2n1` [Compound 143], 0.105 µM.
